# Source: PubChem BioAssay (NCI)
#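 Briefly, cells in 96-well plates were exposed to five compound concentrations for 48 h, and endpoints were estimated by linear interpolation. Here, GI50 denotes the concentration required for 50% inhibition of growth. TGI: total growth inhibition.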
# Assays:
# Experiment in all cases: NCI-60 cell line screen, 48 h
# ACHN renal = system: ACHN renal
# HCT-15 colon = system: HCT-15 colon
# MOLT-4 leukemia = system: MOLT-4 leukemia
# RXF 393 renal = system: RXF 393 renal
# T-47D breast = system: T-47D breast
# NCI/ADR-RES ovarian = system: NCI/ADR-RES ovarian
# SR leukemia = system: SR leukemia
# A498 renal = system: A498 renal
# HCC-2998 colon = system: HCC-2998 colon
# LOX IMVI melanoma = system: LOX IMVI melanoma
# MALME-3M melanoma = system: MALME-3M melanoma
# SNB-75 CNS = system: SNB-75 CNS
# PC-3 prostate = system: PC-3 prostate
# HL-60(TB) leukemia = system: HL-60(TB) leukemia
# MDA-MB-231 breast = system: MDA-MB-231 breast
# UACC-257 melanoma = system: UACC-257 melanoma
# CCRF-CEM leukemia = system: CCRF-CEM leukemia
# SK-MEL-5 melanoma = system: SK-MEL-5 melanoma
# M14 melanoma = system: M14 melanoma
# SK-OV-3 ovarian = system: SK-OV-3 ovarian
# UACC-62 melanoma = system: UACC-62 melanoma
# HOP-92 NSCLC = system: HOP-92 NSCLC
# BT-549 breast = system: BT-549 breast
# OVCAR-3 ovarian = system: OVCAR-3 ovarian
# RPMI-8226 leukemia = system: RPMI-8226 leukemia
# SF-539 CNS = system: SF-539 CNS
# OVCAR-8 ovarian = system: OVCAR-8 ovarian
# HOP-62 NSCLC = system: HOP-62 NSCLC
# SF-268 CNS = system: SF-268 CNS
# HT29 colon = system: HT29 colon
# K-562 leukemia = system: K-562 leukemia
# NCI-H226 lung = system: NCI-H226 lung
# SF-295 CNS = system: SF-295 CNS
# NCI-H460 lung = system: NCI-H460 lung
# SNB-19 CNS = system: SNB-19 CNS
# IGROV1 ovarian = system: IGROV1 ovarian
# SW-620 colon = system: SW-620 colon
# KM12 colon = system: KM12 colon
# EKVX NSCLC = system: EKVX NSCLC
# DU-145 prostate = system: DU-145 prostate
# OVCAR-5 ovarian = system: OVCAR-5 ovarian
# HS 578T breast = system: HS 578T breast
# MDA-MB-435 = system: MDA-MB-435
# U251 CNS = system: U251 CNS
# A549 NSCLC = system: A549 NSCLC
# HCT-116 colon = system: HCT-116 colon
# 786-0 renal = system: 786-0 renal
# OVCAR-4 ovarian = system: OVCAR-4 ovarian
# COLO 205 colon = system: COLO 205 colon
# SN12C renal = system: SN12C renal
# SK-MEL-28 melanoma = system: SK-MEL-28 melanoma
# TK-10 renal = system: TK-10 renal
# CAKI-1 renal = system: CAKI-1 renal
# UO-31 renal = system: UO-31 renal
# MCF7 breast = system: MCF7 breast
# NCI-H522 lung = system: NCI-H522 lung
# SK-MEL-2 melanoma = system: SK-MEL-2 melanoma
# NCI-H23 lung = system: NCI-H23 lung
# MDA-N = system: MDA-N
smiles,measurement,setting,value
C[C@@H](NC(=O)[C@@H](CC(=O)N1CCC(N2CCCCC2)CC1)N1C(=O)[C@@H](N2C(=O)OC[C@@H]2c2ccccc2)[C@H]1/C=C/c1cccc(Cl)c1)c1ccccc1,GI50,ACHN renal,2.31 µM
same,TGI,ACHN renal,6.22 µM
same,GI50,HCT-15 colon,2.56 µM
same,TGI,HCT-15 colon,7.74 µM
same,GI50,MOLT-4 leukemia,3.2 µM
same,TGI,MOLT-4 leukemia,10.7 µM
same,GI50,RXF 393 renal,2.15 µM
same,TGI,RXF 393 renal,3.98 µM
same,GI50,T-47D breast,1.9 µM
same,TGI,T-47D breast,4.33 µM
same,GI50,NCI/ADR-RES ovarian,5.92 µM
same,TGI,NCI/ADR-RES ovarian,24.8 µM
same,GI50,SR leukemia,2.61 µM
same,TGI,SR leukemia,7.78 µM
same,GI50,A498 renal,13.2 µM
same,TGI,A498 renal,27.7 µM
same,GI50,HCC-2998 colon,1.99 µM
same,TGI,HCC-2998 colon,4.08 µM
same,GI50,LOX IMVI melanoma,1.46 µM
same,TGI,LOX IMVI melanoma,3.06 µM
same,GI50,MALME-3M melanoma,1.68 µM
same,TGI,MALME-3M melanoma,3.3 µM
same,GI50,SNB-75 CNS,1.71 µM
same,TGI,SNB-75 CNS,4.09 µM
same,GI50,PC-3 prostate,5.37 µM
same,TGI,PC-3 prostate,18.9 µM
same,GI50,HL-60(TB) leukemia,2.21 µM
same,TGI,HL-60(TB) leukemia,4.87 µM
same,GI50,MDA-MB-231 breast,1.9 µM
same,TGI,MDA-MB-231 breast,3.87 µM
same,GI50,UACC-257 melanoma,1.93 µM
same,TGI,UACC-257 melanoma,3.84 µM
same,GI50,CCRF-CEM leukemia,2.73 µM
same,TGI,CCRF-CEM leukemia,7.93 µM
same,GI50,SK-MEL-5 melanoma,1.85 µM
same,TGI,SK-MEL-5 melanoma,3.34 µM
same,GI50,M14 melanoma,1.75 µM
same,TGI,M14 melanoma,3.37 µM
same,GI50,SK-OV-3 ovarian,12.9 µM
same,TGI,SK-OV-3 ovarian,27.5 µM
same,GI50,UACC-62 melanoma,1.95 µM
same,TGI,UACC-62 melanoma,3.88 µM
same,GI50,HOP-92 NSCLC,3.64 µM
same,TGI,HOP-92 NSCLC,16.8 µM
same,GI50,BT-549 breast,5.14 µM
same,TGI,BT-549 breast,18 µM
same,GI50,OVCAR-3 ovarian,1.99 µM
same,TGI,OVCAR-3 ovarian,4.49 µM
same,GI50,RPMI-8226 leukemia,2.93 µM
same,TGI,RPMI-8226 leukemia,8.32 µM
same,GI50,SF-539 CNS,1.76 µM
same,TGI,SF-539 CNS,3.38 µM
same,GI50,OVCAR-8 ovarian,4.3 µM
same,TGI,OVCAR-8 ovarian,16.6 µM
same,GI50,HOP-62 NSCLC,4.16 µM
same,TGI,HOP-62 NSCLC,18.4 µM
same,GI50,SF-268 CNS,2.31 µM
same,TGI,SF-268 CNS,7.21 µM
same,GI50,HT29 colon,2.78 µM
same,TGI,HT29 colon,7.95 µM
same,GI50,K-562 leukemia,2.63 µM
same,TGI,K-562 leukemia,5.47 µM
same,GI50,NCI-H226 lung,14.8 µM
same,TGI,NCI-H226 lung,31.2 µM
same,GI50,SF-295 CNS,1.84 µM
same,TGI,SF-295 CNS,3.91 µM
same,GI50,NCI-H460 lung,2.02 µM
same,TGI,NCI-H460 lung,3.95 µM
same,GI50,SNB-19 CNS,2.77 µM
same,TGI,SNB-19 CNS,7.57 µM
same,GI50,IGROV1 ovarian,4.62 µM
same,TGI,IGROV1 ovarian,19.2 µM
same,GI50,SW-620 colon,2.06 µM
same,TGI,SW-620 colon,4.7 µM
same,GI50,KM12 colon,2.72 µM
same,TGI,KM12 colon,9.63 µM
same,GI50,EKVX NSCLC,3.79 µM
same,TGI,EKVX NSCLC,18 µM
same,GI50,DU-145 prostate,4.03 µM
same,TGI,DU-145 prostate,14.3 µM
same,GI50,OVCAR-5 ovarian,5.78 µM
same,TGI,OVCAR-5 ovarian,20.9 µM
same,GI50,HS 578T breast,2.77 µM
same,TGI,HS 578T breast,7.16 µM
same,GI50,MDA-MB-435,1.64 µM
same,TGI,MDA-MB-435,3.17 µM
same,GI50,U251 CNS,2.03 µM
same,TGI,U251 CNS,4.06 µM
same,GI50,A549 NSCLC,4.34 µM
same,TGI,A549 NSCLC,15.6 µM
same,GI50,HCT-116 colon,1.97 µM
same,TGI,HCT-116 colon,4.11 µM
same,GI50,786-0 renal,1.88 µM
same,TGI,786-0 renal,3.95 µM
same,GI50,OVCAR-4 ovarian,10.5 µM
same,TGI,OVCAR-4 ovarian,24.8 µM
same,GI50,COLO 205 colon,1.8 µM
same,TGI,COLO 205 colon,4.24 µM
same,GI50,SN12C renal,2.9 µM
same,TGI,SN12C renal,8.85 µM
same,GI50,SK-MEL-28 melanoma,1.8 µM
same,TGI,SK-MEL-28 melanoma,3.63 µM
same,GI50,TK-10 renal,1.92 µM
same,TGI,TK-10 renal,4.76 µM
same,GI50,CAKI-1 renal,1.89 µM
same,TGI,CAKI-1 renal,4.17 µM
same,GI50,UO-31 renal,2.03 µM
same,TGI,UO-31 renal,5.35 µM
same,GI50,MCF7 breast,2.04 µM
same,TGI,MCF7 breast,5.36 µM
same,GI50,NCI-H522 lung,1.79 µM
same,TGI,NCI-H522 lung,4.14 µM
same,GI50,SK-MEL-2 melanoma,2.25 µM
same,TGI,SK-MEL-2 melanoma,5.36 µM
same,GI50,NCI-H23 lung,3.85 µM
same,TGI,NCI-H23 lung,15.5 µM
COc1ccc(CCNC(=O)CCCCCO)cc1OC,TGI,ACHN renal,> 100 µM
same,TGI,HCT-15 colon,> 100 µM
same,TGI,MOLT-4 leukemia,> 100 µM
same,TGI,RXF 393 renal,> 100 µM
same,TGI,T-47D breast,> 100 µM
same,TGI,NCI/ADR-RES ovarian,> 100 µM
same,TGI,SR leukemia,> 100 µM
same,TGI,A498 renal,> 100 µM
same,TGI,HCC-2998 colon,> 100 µM
same,TGI,SNB-75 CNS,> 100 µM
same,TGI,PC-3 prostate,> 100 µM
same,TGI,HL-60(TB) leukemia,> 100 µM
same,TGI,MDA-MB-231 breast,> 100 µM
same,TGI,UACC-257 melanoma,> 100 µM
same,TGI,CCRF-CEM leukemia,> 100 µM
same,TGI,SK-MEL-5 melanoma,> 100 µM
same,TGI,M14 melanoma,> 100 µM
same,TGI,SK-OV-3 ovarian,> 100 µM
same,TGI,UACC-62 melanoma,> 100 µM
same,TGI,HOP-92 NSCLC,> 100 µM
same,TGI,BT-549 breast,> 100 µM
same,TGI,OVCAR-3 ovarian,> 100 µM
same,TGI,RPMI-8226 leukemia,> 100 µM
same,TGI,SF-539 CNS,> 100 µM
same,TGI,OVCAR-8 ovarian,> 100 µM
same,TGI,HOP-62 NSCLC,> 100 µM
same,TGI,SF-268 CNS,> 100 µM
same,TGI,HT29 colon,> 100 µM
same,TGI,K-562 leukemia,> 100 µM
same,TGI,NCI-H226 lung,> 100 µM
same,TGI,SF-295 CNS,> 100 µM
same,TGI,NCI-H460 lung,> 100 µM
same,TGI,SNB-19 CNS,> 100 µM
same,TGI,IGROV1 ovarian,> 100 µM
same,TGI,SW-620 colon,> 100 µM
same,TGI,KM12 colon,> 100 µM
same,TGI,EKVX NSCLC,> 100 µM
same,TGI,DU-145 prostate,> 100 µM
same,TGI,OVCAR-5 ovarian,> 100 µM
same,TGI,HS 578T breast,> 100 µM
same,TGI,MDA-MB-435,> 100 µM
same,TGI,U251 CNS,> 100 µM
same,TGI,A549 NSCLC,> 100 µM
same,TGI,HCT-116 colon,> 100 µM
same,TGI,786-0 renal,> 100 µM
same,TGI,OVCAR-4 ovarian,> 100 µM
same,TGI,COLO 205 colon,> 100 µM
same,TGI,SN12C renal,> 100 µM
same,TGI,SK-MEL-28 melanoma,> 100 µM
same,TGI,TK-10 renal,> 100 µM
same,TGI,CAKI-1 renal,> 100 µM
same,TGI,UO-31 renal,> 100 µM
same,TGI,MCF7 breast,> 100 µM
same,TGI,NCI-H522 lung,> 100 µM
same,TGI,SK-MEL-2 melanoma,> 100 µM
same,TGI,NCI-H23 lung,> 100 µM
O=C(O)CC(NC(=O)CP(=O)(O)O)C(=O)O.[NH-]C1CCCCC1[NH-].[Pt+2] (configuration not stated),GI50,ACHN renal,84.7 µM
same,GI50,HCT-15 colon,67.9 µM
same,GI50,MOLT-4 leukemia,0.675 µM
same,TGI,MOLT-4 leukemia,31.4 µM
same,GI50,T-47D breast,94.7 µM
same,GI50,HL-60(TB) leukemia,40.2 µM
same,GI50,CCRF-CEM leukemia,18 µM
same,GI50,SK-MEL-5 melanoma,70.2 µM
same,GI50,M14 melanoma,77.2 µM
same,GI50,OVCAR-3 ovarian,88.3 µM
same,GI50,RPMI-8226 leukemia,5.93 µM
same,GI50,MDA-N,70.5 µM
same,GI50,OVCAR-8 ovarian,74.4 µM
same,GI50,SF-268 CNS,78.8 µM
same,GI50,HT29 colon,56.3 µM
same,GI50,K-562 leukemia,5.38 µM
same,GI50,SF-295 CNS,56.3 µM
same,GI50,NCI-H460 lung,42.2 µM
same,GI50,SW-620 colon,19.6 µM
same,GI50,KM12 colon,84.1 µM
same,GI50,MDA-MB-435,75.9 µM
same,GI50,A549 NSCLC,56.4 µM
same,GI50,HCT-116 colon,30.4 µM
same,GI50,786-0 renal,52 µM
same,GI50,COLO 205 colon,51 µM
same,GI50,SN12C renal,96.6 µM
same,GI50,CAKI-1 renal,96.2 µM
same,GI50,UO-31 renal,41.3 µM
same,GI50,MCF7 breast,75.8 µM
same,GI50,NCI-H522 lung,60.8 µM
